For 24 compounds, IC50 results are on record in patent publication US12226405B2, “Compounds and compositions for inhibiting the activity of HIF2-alpha and their methods of use” (Novartis AG, priority 2020, dated 2025).

Assay [1] has as its system HIF2α-dependent transcription in 786-O-HRE-Luc cells. The experiment in a line: In vitro cellular hypoxia response element (HRE) reporter gene assay (RGA) for HIF2α. It is filed as cell-based, human. The following applies: 24 hours incubation. In short, it runs like this: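 Renal carcinoma cells carrying a 4×HRE-driven PEST-destabilised firefly luciferase were treated a day after seeding with eleven 2-fold compound dilutions (0.1% DMSO) for 24 h at 37° C. BrightGlo luminescence, background-subtracted and expressed as % of DMSO control, was fitted four-parametrically for IC50.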
On the technique in general: A reporter such as luciferase makes a cellular process visible.

Assay [2] addresses HIF2α PAS-B domain (236-350, biotinylated on the N-terminus) (Homo sapiens (Human), UniProt Q99814).
Protocol: The assay buffer contained 50 mM Tris-HCl pH7 (Sigma), 20 mM NaCl (Fluka), 0.02% BSA (Sigma), 0.005% Triton X-100 (Pierce) and 1 mM DTT (Fluka). After a 30 min incubation period, 5 μL Streptavidin PVT SPA Beads (Perkin Elmer) at 1.2 mg/mL, diluted in the buffer, were added.
Assay [3] concerns HIF2α-regulated expression of the endogenous target gene hEGLN3 in 786-O cells. The assay can be described thus: Cellular iScript assay for HIF2α (quantitative RT-PCR of hEGLN3). Type of assay: cell-based, human. A digest of the protocol:
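786-O cells were exposed to eleven 2-fold compound dilutions for 48 h at 37° C. Lysates underwent one-step TaqMan qRT-PCR for hEGLN3 with beta-actin as reference; 2^(−ΔΔCt) versus DMSO, as % of control, was fit with a four-parameter model to give IC50.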

[4] abbreviates: Homo sapiens, 786-0, 48 hours incubation.

Structures are written as SMILES. pIC50: −log10 of the molar value.

Sequence of HIF2α PAS-B domain (236-350, biotinylated on the N-terminus) (Q99814 236-350): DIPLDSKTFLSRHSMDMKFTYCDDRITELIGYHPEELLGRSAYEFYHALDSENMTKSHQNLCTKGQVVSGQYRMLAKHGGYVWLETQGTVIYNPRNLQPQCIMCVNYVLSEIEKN

In the case of `N#CC1=CN2C[C@@]3(CCCc4c(F)cccc43)N=C2C(OC(F)F)=C1` [Example 26, (S)-8-(difluoromethoxy)-5′-fluoro-3′,4′-dihydro-2′H,3H-spiro[imidazo[1,2-a]pyridine-2,1′-naphthalene]-6-carbonitrile], the results for the pIC50 in assay [1] (Homo sapiens), in assay [2] and in assay [3] (setting [4]) were 6.84, ≥ 8.22 and 7.47, respectively.
Take `N#CC1=CN2C[C@@]3(CCCc4cc(F)ccc43)N=C2C(OC(F)F)=C1` [Example 35, (S)-8-(difluoromethoxy)-6′-fluoro-3′,4′-dihydro-2′H,3H-spiro[imidazo[1,2-a]pyridine-2,1′-naphthalene]-6-carbonitrile]: the pIC50 (commonly −log10 of the IC50, conventionally taken in molar units) was 6.57 in assay [1] (Homo sapiens), 8.05 in assay [2] and 7.08 in assay [3] (setting [4]).
As for `FC(F)OC1=CC(C(F)(F)F)=CN2C[C@@]3(CCOc4c3ccc(Br)c4Cl)N=C12` [Example 100, (S)-7-bromo-8-chloro-8′-(difluoromethoxy)-6′-(trifluoromethyl)-3′H-spiro[chromane-4,2′-imidazo[1,2-a]pyridine]], the pIC50 is 6.97 in assay [1] (Homo sapiens), 8.40 in assay [2] and 7.20 in assay [3] (setting [4]).
In the case of `N#Cc1ccc2c(c1F)[C@@H](F)CC[C@@]21CN2C=C(C(F)(F)F)C=C(OC(F)F)C2=N1` [Example 25, (1′S,4'S)-8-(difluoromethoxy)-4′,5′-difluoro-6-(trifluoromethyl)-3′,4′-dihydro-2′H,3H-spiro[imidazo[1,2-a]pyridine-2,1′-naphthalene]-6′-carbonitrile], the pIC50 is 6.69 in assay [1] (Homo sapiens), 7.72 in assay [2] and 7.08 in assay [3] (setting [4]).
For `FC(F)OC1=CC(C(F)(F)F)=CN2C[C@@]3(N=C12)c1ccc(C(F)(F)F)cc1OC[C@@H]3F` [Example 61, (2′S,3R)-8′-(difluoromethoxy)-3-fluoro-6′,7-bis(trifluoromethyl)-3′H-spiro[chroman-4,2′-imidazo[1,2-a]pyridine]], the pIC50 in assay [1] (Homo sapiens) is 6.84; in assay [2], 7.77; in assay [3] (setting [4]), 7.29.
For `Fc1c(Br)ccc2c1CCC[C@@]21CN2C=C(Cl)C=C(OC(F)F)C2=N1` [Example 89, (S)-6′-bromo-6-chloro-8-(difluoromethoxy)-5′-fluoro-3′,4′-dihydro-2′H,3H-spiro[imidazo[1,2-a]pyridine-2,1′-naphthalene]], the pIC50 in assay [1] (Homo sapiens) is 6.66; in assay [2], ≥ 8.15; in assay [3] (setting [4]) it was 7.47.
On to `Fc1c(Cl)ccc2c1OCC[C@@]21CN2C=C(C(F)(F)F)C=C(OC(F)F)C2=N1` [Example 43, (S)-7-chloro-8′-(difluoromethoxy)-8-fluoro-6′-(trifluoromethyl)-3′H-spiro[chroman-4,2′-imidazo[1,2-a]pyridine]], for which the figures for the pIC50 in assay [1] (Homo sapiens), in assay [2] and in assay [3] (setting [4]) were 6.74, 8.00 and 7.23, respectively.
Turning to `FC1=CC(C(F)(F)F)=CN2C[C@@]3(CCCc4c3ccc(F)c4F)N=C12` [Example 29, (S)-5′,6′,8-trifluoro-6-(trifluoromethyl)-3′,4′-dihydro-2′H,3H-spiro[imidazo[1,2-a]pyridine-2,1′-naphthalene]], the figures for the pIC50 in assay [1] (Homo sapiens), in assay [2] and in assay [3] (setting [4]) were 5.88, 8.10 and 7.03, respectively.
For `N#CC1=CN2C[C@@]3(CCC(F)(F)c4c3ccc(Br)c4F)N=C2C(OC(F)F)=C1` [Example 92, (S)-6′-bromo-8-(difluoromethoxy)-4′,4′,5′-trifluoro-3′,4′-dihydro-2′H,3H-spiro[imidazo[1,2-a]pyridine-2,1′-naphthalene]-6-carbonitrile], in that order: 6.20, 7.54 and 6.82.
Turning to `FC(F)OC1=CC(C(F)(F)F)=CN2C[C@@]3(CCOc4c(Cl)cccc43)N=C12` [Example 48, (S)-8-chloro-8′-(difluoromethoxy)-6′-(trifluoromethyl)-3′H-spiro[chroman-4,2′-imidazo[1,2-a]pyridine]], the results for the pIC50 in assay [1] (Homo sapiens), in assay [2] and in assay [3] (setting [4]) were 6.01, ≥ 8.00 and 7.20, respectively.
As to `FC(F)OC1=CC(C(F)(F)F)=CN2C[C@@]3(CCc4cc(C(F)(F)F)ncc43)N=C12` [Example 3, (S)-8′-(difluoromethoxy)-3,6′-bis(trifluoromethyl)-5,6-dihydro-3′H-spiro[cyclopenta[c]pyridine-7,2′-imidazo[1,2-a]pyridine]], the figures for the negative-log IC50 (pIC50) in assay [1] (Homo sapiens), in assay [2] and in assay [3] (setting [4]) were < 5.00, 7.92 and 6.73, respectively.
`N#Cc1ccc2c(c1Cl)OCC[C@@]21CN2C=C(C(F)(F)F)C=C(OC(F)F)C2=N1` [Example 96, (S)-8-chloro-8′-(difluoromethoxy)-6′-(trifluoromethyl)-3′H-spiro[chromane-4,2′-imidazo[1,2-a]pyridine]-7-carbonitrile]: the results for the negative-log IC50 (pIC50) in assay [1] (Homo sapiens), in assay [2] and in assay [3] (setting [4]) were 6.29, 7.49 and 6.70, respectively.
Take `[2H]C1C([2H])([2H])Sc2c(F)cccc2[C@]12CN1C=C(C#N)C=C(OC(F)F)C1=N2` (stereo partly drawn) [Example 109, (2S)-8-(difluoromethoxy)-8′-fluoro-3H-spiro[imidazo[1,2-a]pyridine-2,4′-thiochromane]-6-carbonitrile-2′,2′,3′-d3]: the pIC50 in assay [1] (Homo sapiens) is 7.05; in assay [2] it was 8.40; in assay [3] (setting [4]), 7.38.
`Fc1cccc2c1OCCC[C@@]21CN2C=C(C(F)(F)F)C=C(OC(F)F)C2=N1` [Example 69, (S)-8′-(difluoromethoxy)-9-fluoro-6′-(trifluoromethyl)-3,4-dihydro-2H,3′H-spiro[benzo[b]oxepine-5,2′-imidazo[1,2-a]pyridine]]: the results for the pIC50 in assay [1] (Homo sapiens), in assay [2] and in assay [3] (setting [4]) were 6.56, 8.05 and 7.36, respectively.
Turning to `N#CC1=CN2C[C@@]3(CCCc4c3ccc(F)c4F)N=C2C(OC(F)F)=C1` [Example 91, (S)-8-(difluoromethoxy)-5′,6′-difluoro-3′,4′-dihydro-2′H,3H-spiro[imidazo[1,2-a]pyridine-2,1′-naphthalene]-6-carbonitrile], the pIC50 is 6.58 in assay [1] (Homo sapiens), 8.30 in assay [2] and 7.52 in assay [3] (setting [4]).
As to `Fc1c(Br)ccc2c1OCC[C@@]21CN2C=C(Cl)C=C(OC(F)F)C2=N1` [Example 52, (S)-7-bromo-6′-chloro-8′-(difluoromethoxy)-8-fluoro-3′H-spiro[chroman-4,2′-imidazo[1,2-a]pyridine]], the pIC50 in assay [1] (Homo sapiens) is 6.38; in assay [2], 7.96; in assay [3] (setting [4]), 7.06.
For `Fc1ccc2c(c1F)OCCC[C@@]21CN2C=C(C(F)(F)F)C=C(OC(F)F)C2=N1` [Example 117, (S)-8′-(difluoromethoxy)-8,9-difluoro-6′-(trifluoromethyl)-3,4-dihydro-2H,3′H-spiro[benzo[b]oxepine-5,2′-imidazo[1,2-a]pyridine]] the same measures were 6.55, ≥ 8.40 and 7.62.
Turning to `[2H]C1([2H])CC[C@@]2(CN3C=C(C#N)C=C(OC(F)F)C3=N2)c2cccc(F)c21` [Example 27, d2-(S)-8-(difluoromethoxy)-5′-fluoro-3′,4′-dihydro-2′H,3H-spiro[imidazo[1,2-a]pyridine-2,1′-naphthalene]-6-carbonitrile], the figures for the pIC50 in assay [1] (Homo sapiens), in assay [2] and in assay [3] (setting [4]) were 6.73, 7.92 and 6.99, respectively.
`O=C1c2c(F)cccc2[C@@]2(C[C@@H]1F)CN1C=C(C(F)(F)F)C=C(OC(F)F)C1=N2` [Example 21]: the pIC50 was 5.96 in assay [1], 7.44 in assay [2] and 6.92 in assay [3] (48 hours incubation).
`FC(F)OC1=CC(C(F)(F)F)=CN2C[C@@]3(CCCc4c(Cl)cccc43)N=C12` [Example 88, (S)-5′-chloro-8-(difluoromethoxy)-6-(trifluoromethyl)-3′,4′-dihydro-2′H,3H-spiro[imidazo[1,2-a]pyridine-2,1′-naphthalene]]: the results for the pIC50 in assay [1] (Homo sapiens), in assay [2] and in assay [3] (setting [4]) were 6.85, ≥ 8.40 and 7.49, respectively.
Consider `N#CC1=CN2C[C@@]3(CCSc4c3ccc(Cl)c4F)N=C2C(OC(F)F)=C1` [Example 64, (S)-7′-chloro-8-(difluoromethoxy)-8′-fluoro-3H-spiro[imidazo[1,2-a]pyridine-2,4′-thiochroman]-6-carbonitrile], for which the results for the pIC50 in assay [1] (Homo sapiens), in assay [2] and in assay [3] (setting [4]) were 6.63, 8.00 and 7.29, respectively.
In the case of `Fc1c(C(F)(F)F)ncc2c1SCC[C@@]21CN2C=C(C(F)(F)F)C=C(OC(F)F)C2=N1` [Example 67, (S)-8-(difluoromethoxy)-8′-fluoro-6,7′-bis(trifluoromethyl)-2′,3′-dihydro-3H-spiro[imidazo[1,2-a]pyridine-2,4′-thiopyrano[3,2-c]pyridine]], the pIC50 in assay [1] (Homo sapiens) was 6.97; in assay [2] it was 7.82; in assay [3] (setting [4]), 7.24.
Consider `Fc1c(Br)ccc2c1OC[C@H](F)[C@@]21CN2C=C(C(F)(F)F)C=C(OC(F)F)C2=N1` [Example 57, (2′S,3R)-7-bromo-8′-(difluoromethoxy)-3,8-difluoro-6′-(trifluoromethyl)-3′H-spiro[chroman-4,2′-imidazo[1,2-a]pyridine]], for which the figures for the pIC50 in assay [1] (Homo sapiens), in assay [2] and in assay [3] (setting [4]) were 6.71, 7.92 and 7.21, respectively.
Consider `Fc1cccc2c1CCC[C@@]21CN2C=C(C(F)(F)F)C=C(OC(F)F)C2=N1` [Example 28, (S)-8-(difluoromethoxy)-5′-fluoro-6-(trifluoromethyl)-3′,4′-dihydro-2′H,3H-spiro[imidazo[1,2-a]pyridine-2,1′-naphthalene]], for which the negative-log IC50 (pIC50) was 6.77 in assay [1] (Homo sapiens), 8.30 in assay [2] and 7.18 in assay [3] (setting [4]).
